The values below come from ChEMBL document CHEMBL1201862, “PubChem BioAssay data set” (2004).

What all share (test): inhibition of tumour cell growth, NCI panel, 48 h
In assay [1] the test system is UACC-62.
In assay [2] the test system is A549.
Assay [3] relates to OVCAR-5.
The test system of assay [4] is IGROV-1.
Assay [5] deals with SF-268.
In assay [6] the test system is Malme-3M.
The subject of assay [7] is U-251.
Assay [8] has as its system SR.
The test system of assay [9] is NCI-H226.
The test system of assay [10] is M14.
Assay [11] has as its system TK-10.
The subject of assay [12] is SF-295.
Assay [13] relates to HT-29.
The subject of assay [14] is MDA-MB-231.
Assay [15] deals with HL-60.
Assay [16] concerns HOP-92.
The subject of assay [17] is NCI-H522.
Assay [18] has as its system RXF 393.
The subject of assay [19] is CAKI-1.

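These data come from cells grown in 96-well plates and exposed to compound for 48 hours at five concentrations. At the GI50, growth is halved.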 The source made the active and inactive calls. Cut-off read from the data, not from the text of the source: active = GI50 up to about 1.1 µM and inactive = higher.

`COc1cc2oc(=O)cc(C)c2c(OC)c1OC`: the GI50 in [1], in assay [2], in assay [3], in assay [4], in assay [5] and in assay [6] was > 100 µM (inactive) throughout. Besides, the GI50 in assay [7], in [8], in assay [9], in assay [10], in [11] and in assay [12] was > 100 µM (inactive) throughout. In addition, the GI50 in assay [13] and in assay [14] was > 100 µM (inactive) throughout.

For the compound `CC(=O)/C=C1/C(=O)C(CC(C)C)=C1CC(C)C`, the GI50 in assay [15], in assay [1], in assay [2], in [3], in [16] and in assay [17] was > 100 µM (inactive) in each case. Further, the GI50 in assay [4], in assay [18], in assay [5], in [6], in [7] and in [19] was > 100 µM (inactive) throughout. The GI50 in [9], in assay [10], in assay [11], in assay [12], in assay [13] and in assay [14] was > 100 µM (inactive) each time.

With `COc1cc2nc(-c3cccs3)nc(Nc3ccccc3C(=O)NN)c2cc1OC`, the GI50 in assay [15] is 44.9 µM (inactive); in [1], > 100 µM (inactive); in [2], > 100 µM (inactive); in [3] it was > 100 µM (inactive); in assay [16], 21.6 µM (inactive); in [17], > 100 µM (inactive). For the same compound, the GI50 in [4] is > 100 µM (inactive); in assay [5] it was > 100 µM (inactive); in [6] it was > 100 µM (inactive); in assay [7], 96.2 µM (inactive); in assay [19], > 100 µM (inactive); in assay [8], 23.6 µM (inactive). Besides, the GI50 in assay [9] was > 100 µM (inactive); in assay [10], > 100 µM (inactive); in [11], > 100 µM (inactive); in assay [12], 66.8 µM (inactive); in [13], > 100 µM (inactive); in [14] it was > 100 µM (inactive).

`CC(=O)Oc1ccc(N2C(=O)C3c4[nH]c5ccccc5c4C4CCC(C(C)(C)C)CC4C3C2=O)cc1` (centres undefined): the GI50 in assay [15] is 2.21 µM (inactive); in assay [1] it was 6.08 µM (inactive); in assay [2], 3.13 µM (inactive); in assay [3] it was 2.63 µM (inactive); in assay [16] it was 3.03 µM (inactive); in assay [17], 4.45 µM (inactive). For the same compound, the GI50 in assay [4] is 5.97 µM (inactive); in [18], 2.46 µM (inactive); in assay [5] it was 3.34 µM (inactive); in assay [6], 6.56 µM (inactive); in assay [7] it was 3.27 µM (inactive); in [19], 5.31 µM (inactive). The GI50 in assay [9] was 12.7 µM (inactive); in assay [10], 4.01 µM (inactive); in assay [11], 3.33 µM (inactive); in assay [12] it was 4.37 µM (inactive); in assay [13], 3.3 µM (inactive); in [14], 2.28 µM (inactive).

As for `C=C1C/C(=C/C)C(=O)O[C@@H]2CCN3CC=C(COC(=O)[C@]1(C)O)[C@H]23` [SENECIPHYLLINE], the GI50 in assay [15], in assay [1], in assay [2], in [3], in assay [16] and in assay [17] was > 100 µM (inactive) each time. Further, the GI50 in [4] was > 100 µM (inactive); in [5] it was > 100 µM (inactive); in assay [7], > 100 µM (inactive); in [19] it was > 100 µM (inactive); in assay [8], > 100 µM (inactive); in [9], 35.5 µM (inactive). For the same compound, the GI50 in [10], in [11], in [12], in [13] and in assay [14] was > 100 µM (inactive) in each case.

As for `Cc1ccc(C(=O)Nc2ccc(S(=O)(=O)O)c3cc(S(=O)(=O)O)cc(S(=O)(=O)O)c23)cc1NC(=O)Nc1cc(C(=O)Nc2ccc(S(=O)(=O)O)c3cc(S(=O)(=O)O)cc(S(=O)(=O)O)c23)ccc1C`, the GI50 in assay [15], in assay [1], in assay [2], in assay [3], in assay [17] and in assay [4] was > 87.5 µM (inactive) each time. For the same compound, the GI50 in [5], in assay [6], in assay [7], in [19], in assay [8] and in assay [9] was > 87.5 µM (inactive) each time. Also, the GI50 in assay [10], in assay [11], in assay [13] and in assay [14] was > 87.5 µM (inactive) each time.

With `CS(=O)(=O)N1CC(CCl)c2ccc(NCCN)cc21` (centres undefined), the GI50 in assay [15] is > 100 µM (inactive); in assay [2], > 100 µM (inactive); in assay [3], > 100 µM (inactive); in assay [16] it was 26.3 µM (inactive); in assay [17], 23.7 µM (inactive); in assay [4] it was 12.5 µM (inactive). Besides, the GI50 in [18] is 35.4 µM (inactive); in assay [5], 39.1 µM (inactive); in assay [6], > 100 µM (inactive); in [7], 27.7 µM (inactive); in assay [19], 96.2 µM (inactive); in [9], > 100 µM (inactive). In addition, the GI50 was > 100 µM (inactive) in [10], > 100 µM (inactive) in assay [11], > 100 µM (inactive) in assay [13] and 33.3 µM (inactive) in assay [14].

Consider `Cc1cn(CC2=NCC(O)CN2)c(=O)[nH]c1=O` (centres undefined), for which the GI50 in assay [15], in assay [1], in assay [2], in assay [3], in assay [16] and in assay [17] was > 100 µM (inactive) each time. In addition, the GI50 in assay [4], in [18], in assay [5], in assay [6], in assay [7] and in [19] was > 100 µM (inactive) each time. Moreover, the GI50 in [9], in assay [10], in [11], in assay [12], in assay [13] and in assay [14] was > 100 µM (inactive) throughout.

Turning to `CC(C)CC(=O)CC(C)[C@]1(CCCOCc2ccccc2)C(=O)N2CCC3(C[C@@]24CCC[C@H]41)OCCO3` (some centres undefined), the GI50 in assay [15], in [3], in [16], in assay [17], in [4] and in assay [5] was > 10 µM (inactive) in each case. In addition, the GI50 in [7], in assay [19], in [8], in assay [9], in assay [10] and in assay [11] was > 10 µM (inactive) each time. Further, the GI50 in assay [12] and in assay [14] was > 10 µM (inactive) throughout.

Take `CCCNC(=O)c1cc(OC)c(OC)cc1NC(=O)C12CC3CC(CC(C3)C1)C2`: the GI50 in assay [15] is 32.7 µM (inactive); in assay [2], 17.1 µM (inactive); in assay [3] it was 20.2 µM (inactive); in [16], 18.3 µM (inactive); in [17], 12.3 µM (inactive); in [4], 22.9 µM (inactive). The GI50 was 6.81 µM (inactive) in [18]; 17.6 µM (inactive) in assay [5]; 17.8 µM (inactive) in [6]; 17 µM (inactive) in assay [7]; 19.8 µM (inactive) in [19]; 25.2 µM (inactive) in [9]. The GI50 in assay [10] is 15.2 µM (inactive); in assay [11], 16.6 µM (inactive); in assay [12], 18.7 µM (inactive); in assay [13] it was 18.2 µM (inactive); in assay [14], 16.9 µM (inactive).

As to `CCN1CC2=C(NC(=S)NC2c2cc(OC)c(OC)c(OC)c2)/C(=C/c2cc(OC)c(OC)c(OC)c2)C1` (centres undefined), the GI50 is 19.5 µM (inactive) in assay [15]; 31.8 µM (inactive) in assay [1]; 26.7 µM (inactive) in [2]; 14.4 µM (inactive) in assay [3]; 18.1 µM (inactive) in assay [16]; 10.6 µM (inactive) in [17]. Moreover, the GI50 is 24.4 µM (inactive) in assay [4]; 33 µM (inactive) in assay [18]; 6.31 µM (inactive) in [5]; 0.871 µM (active) in assay [6]; 45.1 µM (inactive) in assay [7]; 19.4 µM (inactive) in assay [19]. Further, the GI50 in [9] is 27.5 µM (inactive); in assay [10], 16.6 µM (inactive); in assay [11], 36.1 µM (inactive); in assay [12], 53 µM (inactive); in assay [13], 23.4 µM (inactive); in assay [14], 34.1 µM (inactive).
